Columns and labels:
[1] = tested on: Felis catus; test: In vivo inhibition of beta-2 adrenergic receptor in cat assessed as inhibition of isoproterenol-induced vasodepressor response at ED50 administered as 30 mins of infusion measured at 30 mins relative to control; format: functional
[2] = tested on: Felis catus; test: In vivo inhibition of beta-1 adrenergic receptor in cat assessed as inhibition of isoproterenol-induced tachycardia administered as 30 mins of infusion measured at 30 mins by cardiotachometer; format: functional; settings: 0.5 h

CCNC(=O)Nc1ccc(OCC(O)CNC(C)C)c(Cl)c1 (centres undefined)
inhibition (INH) [1]: 0% | ED50 [2]: 0.188 mg/kg

C=CCc1cc(NC(=O)NCC)ccc1OCC(O)CNC1CC1 (centres undefined)
inhibition (INH) [1]: 37% | ED50 [2]: 1.14 mg/kg

CNC(=O)Nc1ccc(OCC(O)CNC(C)(C)C)cc1 (centres undefined)
inhibition (INH) [1]: 0% | ED50 [2]: 0.074 mg/kg

CCCCCCNC(=O)Nc1ccc(OCC(O)CNC(C)C)c(C)c1 (centres undefined)
inhibition (INH) [1]: 19% | ED50 [2]: 0.189 mg/kg

CNC(=O)Nc1ccc(OCC(O)CNC(C)C)c(C(C)=O)c1 (centres undefined)
inhibition (INH) [1]: 43% | ED50 [2]: 0.395 mg/kg

C=CCNC(=O)Nc1ccc(OCC(O)CNC(C)(C)C)c(C)c1 (centres undefined)
inhibition (INH) [1]: 32% | ED50 [2]: 0.045 mg/kg

CNC(=O)Nc1ccc(OCC(O)CNC(C)C)c(I)c1 (centres undefined)
inhibition (INH) [1]: 33% | ED50 [2]: 0.1 mg/kg

CC(C)NC(=O)Nc1ccc(OCC(O)CNC(C)(C)C)cc1 (centres undefined)
inhibition (INH) [1]: 24% | ED50 [2]: 0.095 mg/kg

Cc1cc(NC(=O)NC(C)C)ccc1OCC(O)CNC(C)C (centres undefined)
inhibition (INH) [1]: 57% | ED50 [2]: 0.438 mg/kg

CC(C)NCC(O)COc1ccc(NC(=O)NC2CCCCC2)cc1Cl (centres undefined)
inhibition (INH) [1]: 14% | ED50 [2]: 0.252 mg/kg

CCCNC(=O)Nc1ccc(OCC(O)CNC(C)C)cc1 (centres undefined)
inhibition (INH) [1]: 0% | ED50 [2]: 0.147 mg/kg

CCCNC(=O)Nc1ccc(OCC(O)CNC(C)C)c(C)c1 (centres undefined)
inhibition (INH) [1]: 59% | ED50 [2]: 0.061 mg/kg

CCCCNC(=O)Nc1ccc(OCC(O)CNC(C)(C)C)cc1 (centres undefined)
inhibition (INH) [1]: 0% | ED50 [2]: 0.048 mg/kg

CCNC(=O)Nc1ccc(OCC(O)CNC(C)C)c(OCC)c1 (centres undefined)
inhibition (INH) [1]: 41% | ED50 [2]: 0.295 mg/kg

CCNC(=O)Nc1ccc(OCC(O)CNC(C)(C)C)cc1 (centres undefined)
inhibition (INH) [1]: 34% | ED50 [2]: 0.201 mg/kg

C=CCc1cc(NC(=O)NC)ccc1OCC(O)CNC(C)(C)C (centres undefined)
inhibition (INH) [1]: 74% | ED50 [2]: 0.056 mg/kg

C=CCNC(=O)Nc1ccc(OCC(O)CNC(C)C)c(C)c1 (centres undefined)
inhibition (INH) [1]: 12% | ED50 [2]: 0.107 mg/kg

CCNC(=O)Nc1ccc(OCC(O)CNC(C)C)c(Br)c1 (centres undefined)
inhibition (INH) [1]: 19% | ED50 [2]: 0.069 mg/kg

CCCCCCCCNC(=O)Nc1ccc(OCC(O)CNC(C)(C)C)c(C)c1 (centres undefined)
inhibition (INH) [1]: 11% | ED50 [2]: 0.08 mg/kg

CCCCCCNC(=O)Nc1ccc(OCC(O)CNC(C)C)cc1 (centres undefined)
inhibition (INH) [1]: 0% | ED50 [2]: 0.274 mg/kg

C=CCNC(=O)Nc1ccc(OCC(O)CNC(C)C)cc1 (centres undefined)
inhibition (INH) [1]: 70% | ED50 [2]: 0.262 mg/kg

CC(C)(C)NCC(O)COc1ccc(NC(N)=O)cc1 (centres undefined)
inhibition (INH) [1]: 0% | ED50 [2]: 0.101 mg/kg

CNC(=O)Nc1ccc(OCC(O)CNC(C)C)c(Cl)c1 (centres undefined)
inhibition (INH) [1]: 26% | ED50 [2]: 0.104 mg/kg

CCNC(=O)Nc1ccc(OCC(O)CNC(C)C)c(SC)c1 (centres undefined)
inhibition (INH) [1]: 32% | ED50 [2]: 0.198 mg/kg

C=CCc1cc(NC(=O)NCC)ccc1OCC(O)CNC(C)C (centres undefined)
inhibition (INH) [1]: 68% | ED50 [2]: 0.18 mg/kg

CCCCNC(=O)Nc1ccc(OCC(O)CNC(C)C)c(C)c1 (centres undefined)
inhibition (INH) [1]: 0% | ED50 [2]: 0.046 mg/kg

CCCNC(=O)Nc1ccc(OCC(O)CNC(C)(C)C)cc1 (centres undefined)
inhibition (INH) [1]: 0% | ED50 [2]: 0.033 mg/kg

C=CCNC(=O)Nc1ccc(OCC(O)CNC(C)C)c(Cl)c1 (centres undefined)
inhibition (INH) [1]: 43% | ED50 [2]: 0.131 mg/kg

CCNC(=O)Nc1ccc(OCC(O)CNC(C)(C)C)c(C)c1 (centres undefined)
inhibition (INH) [1]: 58% | ED50 [2]: 0.057 mg/kg

CC(=O)Nc1ccc(OCC(O)CNC(C)C)cc1 (centres undefined) [PRACTOLOL]
inhibition (INH) [1]: 8% | ED50 [2]: 0.167 mg/kg

CCCCNC(=O)Nc1ccc(OCC(O)CNC(C)(C)C)c(C)c1 (centres undefined)
inhibition (INH) [1]: 11% | ED50 [2]: 0.012 mg/kg

CC(C)(C)NCC(O)COc1ccc(NC(=O)Nc2ccc(Cl)cc2)cc1 (centres undefined)
inhibition (INH) [1]: 39% | ED50 [2]: 0.403 mg/kg

C=CCc1cc(NC(=O)NCC)ccc1OCC(O)CNC(C)(C)C (centres undefined)
inhibition (INH) [1]: 30% | ED50 [2]: 0.038 mg/kg

CCCCCCCCNC(=O)Nc1ccc(OCC(O)CNC(C)C)c(C)c1 (centres undefined)
inhibition (INH) [1]: 28% | ED50 [2]: 0.169 mg/kg

CCCCCCNC(=O)Nc1ccc(OCC(O)CNC(C)(C)C)c(C)c1 (centres undefined)
inhibition (INH) [1]: 50% | ED50 [2]: 0.03 mg/kg

CC(C)NCC(O)COc1cccc2ccccc12 (centres undefined) [PROPRANOLOL]
inhibition (INH) [1]: 85% | ED50 [2]: 0.062 mg/kg

CC(C)NCC(O)COc1ccc(NC(N)=O)cc1 (centres undefined)
inhibition (INH) [1]: 20% | ED50 [2]: 0.631 mg/kg

CCNC(=O)Nc1ccccc1OCC(O)CNC(C)C (centres undefined)
inhibition (INH) [1]: 103% | ED50 [2]: 3.24 mg/kg

C=CCc1cc(NC(=O)NCC)ccc1OCC(O)CNC(C)(C)CO (centres undefined)
inhibition (INH) [1]: 50% | ED50 [2]: 0.224 mg/kg

CNC(=O)Nc1ccc(OCC(O)CNC(C)C)c(C)c1 (centres undefined)
inhibition (INH) [1]: 32% | ED50 [2]: 0.17 mg/kg

CCCNC(=O)Nc1ccc(OCC(O)CNC(C)C)c(I)c1 (centres undefined)
inhibition (INH) [1]: 100% | ED50 [2]: 0.077 mg/kg

CCNC(=O)Nc1ccc(OCC(O)CNC(C)(C)C)c(I)c1 (centres undefined)
inhibition (INH) [1]: 6% | ED50 [2]: 0.023 mg/kg

CCCCCCNC(=O)Nc1ccc(OCC(O)CNC(C)(C)C)cc1 (centres undefined)
inhibition (INH) [1]: 30% | ED50 [2]: 0.094 mg/kg

CCNC(=O)Nc1ccc(OCC(O)CNC(C)COP)c(C)c1 (centres undefined)
inhibition (INH) [1]: 18% | ED50 [2]: 0.885 mg/kg

CCNC(=O)Nc1ccc(OCC(O)CNC(C)C)c(O)c1 (centres undefined)
inhibition (INH) [1]: 15% | ED50 [2]: 0.521 mg/kg

CCNC(=O)Nc1ccc(OCC(O)CNC(C)C)c(C)c1 (centres undefined)
inhibition (INH) [1]: 27% | ED50 [2]: 0.234 mg/kg

C=CCc1cc(NC(=O)NCCC)ccc1OCC(O)CNC(C)C (centres undefined)
inhibition (INH) [1]: 15% | ED50 [2]: 0.213 mg/kg

CCNC(=O)Nc1ccc(OCC(O)CNC(C)C)cc1 (centres undefined)
inhibition (INH) [1]: 0% | ED50 [2]: 0.427 mg/kg

CCCCCCNC(=O)Nc1ccc(OCC(O)CNC(C)C)c(C(C)=O)c1 (centres undefined)
inhibition (INH) [1]: 0% | ED50 [2]: 0.182 mg/kg

Cc1cc(NC(=O)NC(C)C)ccc1OCC(O)CNC(C)(C)C (centres undefined)
inhibition (INH) [1]: 5% | ED50 [2]: 0.049 mg/kg

CCCc1cc(NC(=O)NC)ccc1OCC(O)CNC(C)(C)C (centres undefined)
inhibition (INH) [1]: 7% | ED50 [2]: 0.093 mg/kg

CNC(=O)Nc1ccc(OCC(O)CNC(C)C)cc1 (centres undefined)
inhibition (INH) [1]: 29% | ED50 [2]: 0.07 mg/kg

C=CCNC(=O)Nc1ccc(OCC(O)CNC(C)(C)C)cc1 (centres undefined)
inhibition (INH) [1]: 6% | ED50 [2]: 0.089 mg/kg

CNC(=O)Nc1ccc(OCC(O)CNC(C)(C)C)c(Cl)c1 (centres undefined)
inhibition (INH) [1]: 52% | ED50 [2]: 0.025 mg/kg

CCCCNC(=O)Nc1ccc(OCC(O)CNC(C)(C)C)c(Cl)c1 (centres undefined)
inhibition (INH) [1]: 0% | ED50 [2]: 0.008 mg/kg

CCCCNC(=O)Nc1ccc(OCC(O)CNC(C)C)cc1 (centres undefined)
inhibition (INH) [1]: 0% | ED50 [2]: 0.416 mg/kg

CCCNC(=O)Nc1ccc(OCC(O)CNC(C)(C)C)c(C)c1 (centres undefined)
inhibition (INH) [1]: 0% | ED50 [2]: 0.044 mg/kg

C=CCNC(=O)Nc1ccc(OCC(O)CNC(C)(C)C)c(Cl)c1 (centres undefined)
inhibition (INH) [1]: 19% | ED50 [2]: 0.022 mg/kg

CCNC(=O)Nc1ccc(OCC(O)CNC(C)(C)C)c(CC)c1 (centres undefined)
inhibition (INH) [1]: 2% | ED50 [2]: 0.08 mg/kg

CNC(=O)Nc1ccc(OCC(O)CNC(C)C)c(Br)c1 (centres undefined)
inhibition (INH) [1]: 63% | ED50 [2]: 0.033 mg/kg

CCNC(=O)Nc1ccc(OCC(O)CNC(C)C)c(CC)c1 (centres undefined)
inhibition (INH) [1]: 33% | ED50 [2]: 0.118 mg/kg

CC(C)NCC(O)COc1cccc(NC(N)=O)c1 (centres undefined)
inhibition (INH) [1]: 58% | ED50 [2]: 0.028 mg/kg
